≈ marks a conversion by molar mass, not a printed value.
Legend:
[1] = tested on: Bacillus Subtilis PCI219; experiment: Minimum growth inhibiting concentration (Table 1); type: cell-based; details: TSBI, pH 7.2, 37° C., 48 hours
Procedure: (§1) For information, the minimum growth inhibiting concentration is a value
(§2) concerning microorganisms cultivated in TSBI the pH of which was adjusted
(§3) to 7.2, each bacteria being incubated at 37° C. for 48 hours.

[2] = tested on: Diplococcus pneumoniae DP-1; experiment: Minimum growth inhibiting concentration (Table 1); type: cell-based; details: Streptococcus pneumoniae, DP1, TSBI, pH 7.2, 37° C., 48 hours
Procedure: as §1, §2, §3

[3] = tested on: Escherichia coli O-55; experiment: Minimum growth inhibiting concentration (Table 1); type: cell-based; details: O55, TSBI, pH 7.2, 37° C., 48 hours
Procedure: as §1, §2, §3

[4] = tested on: Klebsiella pneumoniae ST-101; experiment: Minimum growth inhibiting concentration (Table 1); type: cell-based; details: ST101, TSBI, pH 7.2, 37° C., 48 hours
Procedure: as §1, §2, §3

[5] = tested on: Proteus vulgaris HX-19; experiment: Minimum growth inhibiting concentration (Table 1); type: cell-based; details: HX19, TSBI, pH 7.2, 37° C., 48 hours
Procedure: as §1, §2, §3

[6] = tested on: Pseudomonas aeruguinosa 347; experiment: Minimum growth inhibiting concentration (Table 1); type: cell-based; details: TSBI, pH 7.2, 37° C., 48 hours
Procedure: as §1, §2, §3

[7] = tested on: Salmonella enteritidis 1891; experiment: Minimum growth inhibiting concentration (Table 1); type: cell-based; details: Salmonella enterica, TSBI, pH 7.2, 37° C., 48 hours
Procedure: as §1, §2, §3

[8] = tested on: Salmonella pullorum chuyu 114; experiment: Minimum growth inhibiting concentration (Table 1); type: cell-based; details: Salmonella enterica, TSBI, pH 7.2, 37° C., 48 hours
Procedure: as §1, §2, §3

[9] = tested on: Staphylococcus aureus 209P; experiment: Minimum growth inhibiting concentration (Table 1); type: cell-based; details: TSBI, pH 7.2, 37° C., 48 hours
Procedure: as §1, §2, §3

[10] = tested on: Streptococcus hemolyticus A 089; experiment: Minimum growth inhibiting concentration (Table 1); type: cell-based; details: Streptococcus pyogenes, A089, TSBI, pH 7.2, 37° C., 48 hours
Procedure: as §1, §2, §3

[11] = tested on: Salmonella typhimium K-52; experiment: Curative action in infected mice (Table 4); type: in vivo; details: K52, 168 h, mice infected abdominally, oral in 5% gum arabic, observation one week
Procedure: (§4) Next, in Table 4 are shown the curative actions (ED50 mg/Kg body wt.) and acute toxicities (LD50 mg/kg body wt.) of the typical nitrofuran derivatives of the present invention when used with infected mice.
(§5) Note.- The numerical values in the table denote the amounts per unit body
(§6) weight of the nitrofuran derivatives required for cure when the experimen
(§7) was carried out using mice of body weight of about 20 grams and injecting
(§8) thereinto abdominally the microorganism-containing solutions in amounts o
(§9) 0.2 ml (the microorganism-containing solutions used being those in the
(§10) cases of test microorganisms 1, 3 and 4 in which the microorganism cultur
(§11) liquids were diluted 10^5, 5 and 10^2 times, respectively, and in
(§12) the case of test microorganism 2 that which was concentrated 2 times),
(§13) after which the nitrofuran derivatives suspended in 5% gum arabic were
(§14) forcedly administered orally followed by observation for one week.

[12] = tested on: Staphylococcus aureus 72r; experiment: Curative action in infected mice (Table 4); type: in vivo; details: 168 h, mice infected abdominally, oral in 5% gum arabic, observation one week
Procedure: as §4, §5, §6, §7, §8, §9, §10, §11, §12, §13, §14

[13] = tested on: Streptococcus hemolyticus A 089; experiment: Curative action in infected mice (Table 4); type: in vivo; details: Streptococcus pyogenes, A089, 168 h, mice infected abdominally, oral in 5% gum arabic, observation one week
Procedure: as §4, §5, §6, §7, §8, §9, §10, §11, §12, §13, §14

[14] = Acute toxicity in mice (Table 4); details: mouse, in vivo, po
Procedure: as §4

[15] = tested on: Escherichia coli K-74; experiment: Curative action in infected mice (Table 4); type: in vivo; details: K74, 168 h, mice infected abdominally, oral in 5% gum arabic, observation one week
Procedure: as §4, §5, §6, §7, §8, §9, §10, §11, §12, §13, §14

[16] = tested on: infected mice; experiment: Curative action in infected mice; type: in vivo; details: oral
Procedure: as §5, §6, §7, §8, §9, §10, §11, §12, §13, §14

[17] = tested on: Streptococcus hemolyticus, Staphylococcus aureus, Escherichia coli and salmonella species; details: cited from earlier work
[18] = in vivo; cited from earlier work
[19] = tested on: microorganisms; details: compound (A), background; cited from earlier work

| Structure (SMILES) | MIC [1] [µg/mL] | MIC [2] [µg/mL] | MIC [3] [µg/mL] | MIC [4] [µg/mL] | MIC [5] [µg/mL] | MIC [6] [µg/mL] | MIC [7] [µg/mL] | MIC [8] [µg/mL] | MIC [9] [µg/mL] | MIC [10] [µg/mL] | ED50 [11] [mg/kg] | ED50 [12] [mg/kg] | ED50 [13] [mg/kg] | LD50 [14] [mg/kg] | ED50 [15] [mg/kg] | Curative effect in infected mice (in words) [16] | Antimicrobial activity in vitro (in words) [17] | Concentration inhibiting the growth ([17]; in vitro, Streptococcus hemolyticus, Staphylococcus aureus, Escherichia coli and salmonella species) | Concentration in blood [18] | In vivo antimicrobial activity [19] |
| --- | --- | --- | --- | --- | --- | --- | --- | --- | --- | --- | --- | --- | --- | --- | --- | --- | --- | --- | --- | --- |
| CC(O)CNC(=O)c1ccc(C=Cc2ccc([N+](=O)[O-])o2)cc1 (stereo not drawn) [Example 5, 3-Para[2'-(5"-nitro-2"-furyl)-vinyl]-benzoylamino-2-propanol] | < 0.19 | 0.78 (≈ 2.47 µM) | 6.25 (≈ 19.8 µM) | 3.13 (≈ 9.9 µM) | 3.13 (≈ 9.9 µM) | > 25 | 1.56 (≈ 4.93 µM) | 6.25 (≈ 19.8 µM) | 0.78 (≈ 2.47 µM) | 0.19 (≈ 0.601 µM) | 110 | 37 | 19 | 1700 | – | – | – | – | – | – |
| O=C(NCCO)c1cccc(C=Cc2ccc([N+](=O)[O-])o2)c1 [Example 2, 2-Meta-[2'-(5"-nitro-2"-furyl)-vinyl]-benzoylamino-ethanol] | < 0.19 | < 0.19 | 3.13 (≈ 10.4 µM) | 1.56 (≈ 5.16 µM) | 6.25 (≈ 20.7 µM) | 25 (≈ 82.7 µM) | 0.78 (≈ 2.58 µM) | 3.13 (≈ 10.4 µM) | 0.78 (≈ 2.58 µM) | < 0.19 | 150 | 37 | 34 | 2000 | 45 | – | – | – | – | – |
| NC(=O)CNC(=O)c1ccc(C=Cc2ccc([N+](=O)[O-])o2)cc1 [Example 16, Para-[2-(5'-nitro-2'-furyl)-vinyl]-N-benzoylglycine amide] | < 0.19 | 0.39 (≈ 1.24 µM) | 3.13 (≈ 9.93 µM) | 3.13 (≈ 9.93 µM) | 3.13 (≈ 9.93 µM) | > 25 | 0.78 (≈ 2.47 µM) | 3.13 (≈ 9.93 µM) | 0.78 (≈ 2.47 µM) | < 0.19 | 110 | 30 | 34 | 2000 | 34 | – | – | – | – | – |
| O=C(NCCOCCO)c1ccc(C=Cc2ccc([N+](=O)[O-])o2)cc1 [Example 11, 2-Para-[2'-(5"-nitro-2"-furyl)-vinyl]-benzoylaminoethoxy-2-ethanol] | < 0.19 | 0.78 (≈ 2.25 µM) | 6.25 (≈ 18 µM) | 3.13 (≈ 9.04 µM) | 6.25 (≈ 18 µM) | 25 (≈ 72.2 µM) | 1.56 (≈ 4.5 µM) | 6.25 (≈ 18 µM) | 1.56 (≈ 4.5 µM) | < 0.19 | 100 | 21 | 13 | 1850 | 29 | – | – | – | – | – |
| NC(=O)c1ccc(C=Cc2ccc([N+](=O)[O-])o2)cc1 [Compound A, Para-[2-(5'-nitro-2'-furyl)-vinyl]-benzoylamine, reference compound] | – | – | – | – | – | – | – | – | – | – | > 400 | > 400 | > 400 | > 400 | > 400 | no curative effects were noted | extremely superior antimicrobial activity in vitro | 0.1-3 micrograms per milliliter | can scarcely be noted | not observed |
| O=C(NCCCO)c1ccc(C=Cc2ccc([N+](=O)[O-])o2)cc1 [Example 4, 3-Para-[2'-(5"-nitro-2"-furyl)-vinyl]-benzoylamino-1-propanol] | < 0.19 | 6.25 (≈ 19.8 µM) | 3.13 (≈ 9.9 µM) | 3.13 (≈ 9.9 µM) | 6.25 (≈ 19.8 µM) | > 25 | 3.13 (≈ 9.9 µM) | 6.25 (≈ 19.8 µM) | 0.78 (≈ 2.47 µM) | < 0.19 | 125 | 50 | 24 | 1900 | – | – | – | – | – | – |
| NC(=O)C(CO)NC(=O)c1ccc(C=Cc2ccc([N+](=O)[O-])o2)cc1 (stereo not drawn) [Example 19, Para-[2-(5'-nitro-2'-furyl)-vinyl]-N-benzoylserine amide] | < 0.19 | 0.78 (≈ 2.26 µM) | 12.5 (≈ 36.2 µM) | 6.25 (≈ 18.1 µM) | 6.25 (≈ 18.1 µM) | 25 (≈ 72.4 µM) | 1.56 (≈ 4.52 µM) | 6.25 (≈ 18.1 µM) | 1.56 (≈ 4.52 µM) | < 0.19 | – | 65 | 46 | > 2000 | – | – | – | – | – | – |

Source: US3994882A, “Nitrofuran derivatives, process for the preparation thereof and compositions containing same as active ingredient” (Kabushiki Kaisha Ueno Seiyaku Oyo Kenkyujo, priority 1974, dated 1976)
